Details: Liquid, Ebulliometric method (Recirculating still)

CCCCN [1-butanamine]
Details | vapor or sublimation pressure [kPa]
308.3 K | 19.99
314.7 K | 26.66
319.9 K | 33.33
328.2 K | 46.66
334.8 K | 59.99
337.9 K | 66.66
345.1 K | 86.66
350 K | 101.33

CCNCC [diethylamine]
Details | vapor or sublimation pressure [kPa]
294.7 K | 26.66
299.5 K | 33.33
307.6 K | 46.66
316.7 K | 66.66
323.9 K | 86.66
328.3 K | 101.33

C1CCNC1 [pyrrolidine]
Details | vapor or sublimation pressure [kPa]
316.9 K | 19.99
323.4 K | 26.66
329 K | 33.33
337.6 K | 46.66
347.5 K | 66.66
354.9 K | 86.66
359.4 K | 101.33
